According to patent publication US10196386B2, “Compounds having muscarinic receptor antagonist and beta2 adrenergic receptor agonist activity” (priority 2016, dated 2019):

Assays:
Human β2 adrenoceptor = target: T1, Human β2 adrenoceptor (Homo sapiens, UniProt P07550); experiment: β2 adrenoceptor radioligand binding assay
T1 construct: purchased Perkin Elmer
Procedure, shortened: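 Human β2 receptor membranes incubated 1 h at room temperature with 0.3 nM [125I]cyanopindolol and compound in pH 7.4 HEPES buffer (0.5% DMSO); 2 μM s-propranolol defined non-specific binding. Bound label counted after filtration; IC50 from competition curves, converted to Ki via Cheng–Prusoff.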

Human M3 receptor = target: T2, Human M3 receptor (Homo sapiens, UniProt P20309); experiment: biochemical; assay type: binding; conditions: read-out: M3 Range
T2 construct: purchased Perkin Elmer
T2 sequence (P20309 whole entry): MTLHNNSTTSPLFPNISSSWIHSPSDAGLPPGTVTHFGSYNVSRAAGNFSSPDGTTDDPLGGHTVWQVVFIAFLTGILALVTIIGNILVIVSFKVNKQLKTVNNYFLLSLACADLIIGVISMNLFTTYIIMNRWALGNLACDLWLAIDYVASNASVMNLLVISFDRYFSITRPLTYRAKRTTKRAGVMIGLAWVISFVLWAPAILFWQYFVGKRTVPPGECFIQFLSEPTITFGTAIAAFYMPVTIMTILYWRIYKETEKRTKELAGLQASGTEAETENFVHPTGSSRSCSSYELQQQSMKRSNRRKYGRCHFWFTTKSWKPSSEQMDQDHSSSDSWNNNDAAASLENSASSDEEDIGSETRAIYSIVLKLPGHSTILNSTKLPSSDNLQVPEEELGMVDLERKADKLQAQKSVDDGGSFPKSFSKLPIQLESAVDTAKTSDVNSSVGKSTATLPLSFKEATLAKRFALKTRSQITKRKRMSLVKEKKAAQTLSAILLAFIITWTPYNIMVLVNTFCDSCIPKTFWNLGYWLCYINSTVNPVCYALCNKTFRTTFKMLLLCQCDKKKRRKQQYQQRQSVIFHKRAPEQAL

T1 sequence (P07550 whole entry): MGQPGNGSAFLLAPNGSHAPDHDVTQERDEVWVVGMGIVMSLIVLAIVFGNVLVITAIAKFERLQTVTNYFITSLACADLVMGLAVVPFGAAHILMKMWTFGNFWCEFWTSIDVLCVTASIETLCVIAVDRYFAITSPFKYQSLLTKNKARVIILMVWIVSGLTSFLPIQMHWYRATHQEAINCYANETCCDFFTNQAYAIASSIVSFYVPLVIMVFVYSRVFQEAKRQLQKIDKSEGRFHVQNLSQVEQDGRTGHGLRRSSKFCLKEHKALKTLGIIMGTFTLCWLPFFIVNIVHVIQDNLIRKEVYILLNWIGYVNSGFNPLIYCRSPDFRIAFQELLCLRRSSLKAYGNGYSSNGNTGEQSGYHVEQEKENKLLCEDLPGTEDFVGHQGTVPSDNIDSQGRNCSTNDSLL

Structure (SMILES) | IC50 (Human β2 adrenoceptor) [nM] | IC50 (Human M3 receptor) [nM]
O=C(NCC(=O)N1CCC(c2cccc([C@](O)(C(=O)OCC3CCN(Cc4ccccc4)CC3)c3ccccc3)c2)CC1)c1ccc(CCNC[C@H](O)c2ccc(O)c3[nH]c(=O)ccc23)cc1 [Compound 13, (1-Benzylpiperidin-4-yl)methyl (S)-2-hydroxy-2-(3-(1-((4-(2-(((R)-2-hydroxy-2-(8-hydroxy-2-oxo-1,2-dihydroquinolin-5-yl)ethyl)amino)ethyl)benzoyl)-glycyl)piperidin-4-yl)phenyl)-2-phenylacetate] | < 0.3 | 0.3 to 3
Cn1nc(C(=O)NCc2ccc(CNC[C@H](O)c3ccc(O)c4[nH]c(=O)ccc34)cc2)cc1-c1cccc([C@](O)(C(=O)OCC2CCN(Cc3ccccc3)CC2)c2ccccc2)c1 [Compound 14, (1-Benzylpiperidin-4-yl)methyl (S)-2-hydroxy-2-(3-(3-((4-((((R)-2-hydroxy-2-(8-hydroxy-2-oxo-1,2-dihydroquinolin-5-yl)ethyl)amino)methyl)-benzyl)carbamoyl)-1-methyl-1H-pyrazol-5-yl)phenyl)-2-phenylacetate] | 0.3 to 3 | 0.3 to 3
O=C(NCc1ccc(-c2ccc([C@](O)(C(=O)OCC3CCN(Cc4ccccc4)CC3)c3ccccc3)cc2)s1)c1ccc(CNC[C@H](O)c2ccc(O)c3[nH]c(=O)ccc23)cc1 [Compound 15, (1-benzylpiperidin-4-yl)methyl (S)-2-hydroxy-2-(4-(5-((4-((((R)-2-hydroxy-2-(8-hydroxy-2-oxo-1,2-dihydroquinolin-5-yl)ethyl)amino)methyl)benzamido)methyl)-thiophen-2-yl)phenyl)-2-phenylacetate×2 HCOOH] | < 0.3 | 0.3 to 3
COc1cc(C(=O)NCc2ccc(-c3ccc([C@](O)(C(=O)OCC4CCN(Cc5ccccc5)CC4)c4ccccc4)cc3)s2)ccc1CNC[C@H](O)c1ccc(O)c2[nH]c(=O)ccc12 [Compound 15A, (1-benzylpiperidin-4-yl)methyl (S)-2-hydroxy-2-(4-(5-((4-((((R)-2-hydroxy-2-(8-hydroxy-2-oxo-1,2-dihydroquinolin-5-yl)ethyl)amino)methyl)-3-methoxybenzamido)methyl)thiophen-2-yl)phenyl)-2-phenylacetate] | < 0.3 | 0.3 to 3
O=C(NCc1cc(-c2ccc([C@](O)(C(=O)OCC3CCN(Cc4ccccc4)CC3)c3ccccc3)cc2)cs1)c1ccc(CNC[C@H](O)c2ccc(O)c3[nH]c(=O)ccc23)cc1 [Compound 15B, (1-benzylpiperidin-4-yl)methyl (S)-2-hydroxy-2-(4-(5-((4-((((R)-2-hydroxy-2-(8-hydroxy-2-oxo-1,2-dihydroquinolin-5-yl)ethyl)amino)methyl)-benzamido)methyl)thiophen-3-yl)phenyl)-2-phenylacetate] | 0.3 to 3 | > 3
O=C(NCc1cnc(-c2ccc([C@](O)(C(=O)OCC3CCN(Cc4ccccc4)CC3)c3ccccc3)cc2)s1)c1ccc(CNC[C@H](O)c2ccc(O)c3[nH]c(=O)ccc23)cc1 [Compound 15C, (1-benzylpiperidin-4-yl)methyl (S)-2-hydroxy-2-(4-(5-((4-((((R)-2-hydroxy-2-(8-hydroxy-2-oxo-1,2-dihydroquinolin-5-yl)ethyl)amino)methyl)-benzamido)methyl)thiazol-2-yl)phenyl)-2-phenylacetate] | < 0.3 | 0.3 to 3
O=C(NCc1ccc(-c2ccc([C@](O)(C(=O)OCC3CCN(Cc4ccccc4)CC3)c3ccccc3)cc2)cn1)c1ccc(CNC[C@H](O)c2ccc(O)c3[nH]c(=O)ccc23)cc1 [Compound 15D, (1-benzylpiperidin-4-yl)methyl (S)-2-hydroxy-2-(4-(6-((4-((((R)-2-hydroxy-2-(8-hydroxy-2-oxo-1,2-dihydroquinolin-5-yl)ethyl)amino)methyl)-benzamido)methyl)pyridin-3-yl)phenyl)-2-phenylacetate] | < 0.3 | 0.3 to 3
O=C(c1ccc(CNC[C@H](O)c2ccc(O)c3[nH]c(=O)ccc23)cc1)N1CC=C(c2ccc([C@](O)(C(=O)OCC3CCN(Cc4ccccc4)CC3)c3ccccc3)cc2)CC1 [Compound 15E, (1-benzylpiperidin-4-yl)methyl (S)-2-hydroxy-2-(4-(1-(4-((((R)-2-hydroxy-2-(8-hydroxy-2-oxo-1,2-dihydroquinolin-5-yl)ethyl)amino)methyl)benzoyl)-1,2,3,6-tetrahydropyridin-4-yl)phenyl)-2-phenylacetate] | < 0.3 | 0.3 to 3
COc1cc(C(=O)NCc2cc(-c3ccc([C@](O)(C(=O)OCC4CCN(Cc5ccccc5)CC4)c4ccccc4)cc3)cs2)ccc1CNC[C@H](O)c1ccc(O)c2[nH]c(=O)ccc12 [Compound 15F, (1-benzylpiperidin-4-yl)methyl (S)-2-hydroxy-2-(4-(5-((4-((((R)-2-hydroxy-2-(8-hydroxy-2-oxo-1,2-dihydroquinolin-5-yl)ethyl)amino)methyl)-3-methoxybenzamido)methyl)thiophen-3-yl)phenyl)-2-phenylacetate] | < 0.3 | 0.3 to 3
O=C(NCc1ccc(CCNC[C@H](O)c2ccc(O)c3[nH]c(=O)ccc23)cc1)c1ccc(-c2ccc([C@](O)(C(=O)OCC3CCN(Cc4ccccc4)CC3)c3ccccc3)cc2)s1 [Compound 16, (1-benzylpiperidin-4-yl)methyl (S)-2-hydroxy-2-(4-(5-((4-(2-(((R)-2-hydroxy-2-(8-hydroxy-2-oxo-1,2-dihydroquinolin-5-yl)ethyl)amino)ethyl)benzyl)-carbamoyl)thiophen-2-yl)phenyl)-2-phenylacetate×2 HCOOH] | 0.3 to 3 | > 3
